The record followed here is US8329706B2, “Oxazolidinone derivatives” (Actelion Pharmaceuticals Ltd., priority 2009, dated 2012).

One test has as its target T1, human orexin-2 receptor (Homo sapiens, UniProt O43614).
T1 construct: expressed in transfected cells; host or cells: CHO cells (G418 selection)
T1 sequence (O43614 1-444): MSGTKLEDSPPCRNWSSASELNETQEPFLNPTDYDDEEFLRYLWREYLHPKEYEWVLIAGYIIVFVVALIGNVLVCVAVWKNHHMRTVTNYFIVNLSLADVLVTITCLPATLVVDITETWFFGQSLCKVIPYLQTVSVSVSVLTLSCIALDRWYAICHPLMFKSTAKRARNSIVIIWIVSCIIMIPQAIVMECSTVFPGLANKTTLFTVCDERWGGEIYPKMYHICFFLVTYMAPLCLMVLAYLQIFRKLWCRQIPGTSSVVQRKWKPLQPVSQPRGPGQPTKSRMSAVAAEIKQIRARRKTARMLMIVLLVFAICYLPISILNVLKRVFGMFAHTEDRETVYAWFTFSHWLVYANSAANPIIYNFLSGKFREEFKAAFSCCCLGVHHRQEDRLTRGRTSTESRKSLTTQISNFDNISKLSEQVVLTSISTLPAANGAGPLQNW
The experiment in a line: FLIPR intracellular calcium assay, orexin receptor antagonistic activity (OX2). The class given is cell-based. Conditions: CHO cells expressing human orexin-2 receptor; agonist 3 nM orexin-A; normalized to on-plate reference; * geomean n = 5, *2 geomean n = 2. Here is the method:
(§1) The orexin receptor antagonistic activity of the compounds of formula (I) is determined in accordance with the following experimental method.
(§2) Chinese hamster ovary (CHO) cells expressing the human orexin-1 receptor and the human orexin-2 receptor, respectively, are grown in culture medium (Ham F-12 with L-Glutamine) containing 300 μg/ml G418, 100 U/ml penicillin, 100 μg/ml streptomycin and 10% heat inactivated fetal calf serum (FCS). The cells are seeded at 20′000 cells/well into 384-well black clear bottom sterile plates (Greiner). The seeded plates are incubated overnight at 37° C. in 5% CO2.
(§3) Human orexin-A as an agonist is prepared as 1 mM stock solution in MeOH:water (1:1), diluted in HBSS containing 0.1% bovine serum albumin (BSA), NaHCO3: 0.375 g/l and 20 mM HEPES for use in the assay at a final concentration of 3 nM.
(§4) Antagonists are prepared as 10 mM stock solution in DMSO, then diluted in 384-well plates using DMSO followed by a transfer of the dilutions into in HBSS containing 0.1% bovine serum albumin (BSA), NaHCO3: 0.375 g/l and 20 mM HEPES. On the day of the assay, 50 μl of staining buffer (HBSS containing 1% FCS, 20 mM HEPES, NaHCO3: 0.375 g/l, 5 mM probenecid (Sigma) and 3 μM of the fluorescent calcium indicator fluo-4 AM (1 mM stock solution in DMSO, containing 10% pluronic) is added to each well. The 384-well cell-plates are incubated for 50 min at 37° C. in 5% CO2 followed by equilibration at rt for 30-120 min before measurement.
(§5) Within the Fluorescent Imaging Plate Reader (FLIPR Tetra, Molecular Devices), antagonists are added to the plate in a volume of 10 μl/well, incubated for 10 min and finally 10 μl/well of agonist is added. Fluorescence is measured for each well at 1 second intervals, and the height of each fluorescence peak is compared to the height of the fluorescence peak induced by 3 nM orexin-A with vehicle in place of antagonist. For each antagonist, the IC50 value (the concentration of compound needed to inhibit 50% of the agonistic response) is determined and normalized using the obtained IC50 value of a on-plate reference compound. Optimized conditions were achieved by adjustment of pipetting speed and cell splitting regime. The calculated IC50 values of the compounds may fluctuate depending on the daily cellular assay performance. Fluctuations of this kind are known to those skilled in the art.
(Calcium flux is commonly read through the fluorescence of an indicator in the cells.)

The next test deals with T2, human orexin-1 receptor (Homo sapiens, UniProt O43613).
T2 construct: expressed in transfected cells; host or cells: CHO cells (G418 selection)
T2 sequence (O43613 1-425): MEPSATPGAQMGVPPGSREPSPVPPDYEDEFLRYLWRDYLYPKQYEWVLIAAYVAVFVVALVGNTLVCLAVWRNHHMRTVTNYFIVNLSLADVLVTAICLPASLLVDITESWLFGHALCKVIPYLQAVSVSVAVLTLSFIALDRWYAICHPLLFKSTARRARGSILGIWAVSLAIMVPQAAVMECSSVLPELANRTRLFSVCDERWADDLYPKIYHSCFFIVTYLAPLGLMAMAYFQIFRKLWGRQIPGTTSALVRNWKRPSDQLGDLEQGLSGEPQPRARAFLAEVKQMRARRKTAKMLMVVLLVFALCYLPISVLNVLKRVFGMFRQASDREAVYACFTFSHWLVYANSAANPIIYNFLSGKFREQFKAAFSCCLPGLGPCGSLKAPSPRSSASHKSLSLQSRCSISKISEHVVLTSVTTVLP
As to the kind of experiment: FLIPR intracellular calcium assay, orexin receptor antagonistic activity (OX1). In kind it is cell-based. The note with it: CHO cells expressing human orexin-1 receptor; agonist 3 nM orexin-A; normalized to on-plate reference; * geomean n = 5, *2 geomean n = 2. How it is done: as §1, §2, §3, §4, §5

For orientation: IC50 means the point on the concentration scale where inhibition reaches its midpoint. In the case of “3-(3-Chloro-4-methyl-benzyl)-2-(2,6-dimethoxy-phenyl)-oxazolidin-4-one [Example 43]”, the IC50 on human orexin-2 receptor stood at 349 nM; at human orexin-1 receptor it was 553 nM.

As for `CCOc1ccccc1C1OCC(=O)N1Cc1ccc(Cl)c(C(F)(F)F)c1` (stereo not drawn) [Example 1, 3-(4-Chloro-3-trifluoromethyl-benzyl)-2-(2-ethoxy-phenyl)-oxazolidin-4-one], the half-maximal inhibitory concentration (IC50) turned out to be 263 nM on human orexin-2 receptor and 6490 nM at human orexin-1 receptor.

For the compound `CCOc1ccccc1C1OCC(=O)N1Cc1ccccc1C` (stereo not drawn) [Example 2, 2-(2-Ethoxy-phenyl)-3-(2-methyl-benzyl)-oxazolidin-4-one], the IC50 at human orexin-2 receptor is 223 nM; on human orexin-1 receptor, over 10000 nM.

Regarding `CCOc1ccccc1C1OCC(=O)N1Cc1ccc(C(F)(F)F)cc1` (stereo not drawn) [Example 3, 2-(2-Ethoxy-phenyl)-3-(4-trifluoromethyl-benzyl)-oxazolidin-4-one], the IC50 worked out at 230 nM on human orexin-2 receptor and 9990 nM on human orexin-1 receptor.

As for `CCOc1ccccc1C1OCC(=O)N1Cc1cccc(OC)c1` (stereo not drawn) [Example 4, 2-(2-Ethoxy-phenyl)-3-(3-methoxy-benzyl)-oxazolidin-4-one], the results for the IC50 at human orexin-2 receptor and on human orexin-1 receptor were 705 nM and over 10000 nM, respectively.

For the compound `CCOc1ccccc1C1OCC(=O)N1Cc1cccc(C(F)(F)F)c1` (stereo not drawn) [Example 5, 2-(2-Ethoxy-phenyl)-3-(3-trifluoromethyl-benzyl)-oxazolidin-4-one], the values for the IC50 on human orexin-2 receptor and at human orexin-1 receptor were 462 nM and over 10000 nM, respectively.

In the case of `CCOc1ccccc1C1OCC(=O)N1Cc1ccc(OC(F)(F)F)cc1` (stereo not drawn) [Example 6, 2-(2-Ethoxy-phenyl)-3-(4-trifluoromethoxy-benzyl)-oxazolidin-4-one], the figures for the IC50 at human orexin-2 receptor and on human orexin-1 receptor were 55 nM and over 10000 nM, respectively.

As for `CCOc1ccccc1C1OCC(=O)N1Cc1cccc(OC(F)(F)F)c1` (stereo not drawn) [Example 7, 2-(2-Ethoxy-phenyl)-3-(3-trifluoromethoxy-benzyl)-oxazolidin-4-one], the IC50 at human orexin-2 receptor was determined as 74 nM; at human orexin-1 receptor, 6810 nM.

On to `CCOc1ccccc1C1OCC(=O)N1Cc1ccc(F)c(C)c1` (stereo not drawn) [Example 8, 2-(2-Ethoxy-phenyl)-3-(4-fluoro-3-methyl-benzyl)-oxazolidin-4-one], for which the IC50 came to 584 nM on human orexin-2 receptor and 9170 nM on human orexin-1 receptor.

In the case of `CCOc1ccccc1C1OCC(=O)N1Cc1ccc(F)c(Cl)c1` (stereo not drawn) [Example 9, 3-(3-Chloro-4-fluoro-benzyl)-2-(2-ethoxy-phenyl)-oxazolidin-4-one], the IC50 on human orexin-2 receptor came to 79 nM; at human orexin-1 receptor, 8740 nM.

Turning to `CCOc1ccccc1C1OCC(=O)N1Cc1cc(C(F)(F)F)cc(Cl)c1F` (stereo not drawn) [Example 10, 3-(3-Chloro-2-fluoro-5-trifluoromethyl-benzyl)-2-(2-ethoxy-phenyl)-oxazolidin-4-one], the IC50 at human orexin-2 receptor came out at 693 nM; at human orexin-1 receptor, 8410 nM.

`CCOc1ccccc1C1OCC(=O)N1Cc1cccc(C(F)(F)F)c1C` (stereo not drawn) [Example 11, 2-(2-Ethoxy-phenyl)-3-(2-methyl-3-trifluoromethyl-benzyl)-oxazolidin-4-one]: the IC50 was determined as 385 nM on human orexin-2 receptor and 5410 nM on human orexin-1 receptor.

As to `CCOc1ccccc1C1OCC(=O)N1Cc1cc(C(F)(F)F)ccc1Cl` (stereo not drawn) [Example 12, 3-(2-Chloro-5-trifluoromethyl-benzyl)-2-(2-ethoxy-phenyl)-oxazolidin-4-one], the IC50 at human orexin-2 receptor came to 590 nM; at human orexin-1 receptor, 4040 nM.

On to `CCOc1ccccc1C1OCC(=O)N1Cc1cc(C(F)(F)F)ccc1F` (stereo not drawn) [Example 13, 2-(2-Ethoxy-phenyl)-3-(2-fluoro-5-trifluoromethyl-benzyl)-oxazolidin-4-one], for which the IC50 at human orexin-2 receptor is 290 nM; on human orexin-1 receptor, over 10000 nM.

`CCOc1ccccc1C1OCC(=O)N1Cc1ccc(F)c(C(F)(F)F)c1` (stereo not drawn) [Example 14, 2-(2-Ethoxy-phenyl)-3-(4-fluoro-3-trifluoromethyl-benzyl)-oxazolidin-4-one]: the IC50 at human orexin-2 receptor is 169 nM; on human orexin-1 receptor it was over 10000 nM.

Turning to `CCOc1ccccc1C1OCC(=O)N1Cc1ccc(C(F)(F)F)c(F)c1` (stereo not drawn) [Example 15, 2-(2-Ethoxy-phenyl)-3-(3-fluoro-4-trifluoromethyl-benzyl)-oxazolidin-4-one], the IC50 is 359 nM at human orexin-2 receptor and over 10000 nM on human orexin-1 receptor.

Turning to `CCOc1ccccc1C1OCC(=O)N1Cc1c(F)ccc(F)c1Cl` (stereo not drawn) [Example 16, 3-(2-Chloro-3,6-difluoro-benzyl)-2-(2-ethoxy-phenyl)-oxazolidin-4-one], the IC50 on human orexin-2 receptor came out at 3810 nM; at human orexin-1 receptor it was 590 nM.

As for `CCOc1ccccc1C1OCC(=O)N1Cc1ccc(Cl)c(F)c1` (stereo not drawn) [Example 17, 3-(4-Chloro-3-fluoro-benzyl)-2-(2-ethoxy-phenyl)-oxazolidin-4-one], the IC50 at human orexin-2 receptor is 627 nM; at human orexin-1 receptor, 9370 nM.

Consider `CCOc1ccccc1C1OCC(=O)N1Cc1ccc(OC(F)(F)F)c(Cl)c1` (stereo not drawn) [Example 18, 3-(3-Chloro-4-trifluoromethoxy-benzyl)-2-(2-ethoxy-phenyl)-oxazolidin-4-one], for which the IC50 is 26 nM at human orexin-2 receptor and 8790 nM at human orexin-1 receptor.

On to `CCOc1ccccc1C1OCC(=O)N1Cc1ccc(Cl)cc1F` (stereo not drawn) [Example 19, 3-(4-Chloro-2-fluoro-benzyl)-2-(2-ethoxy-phenyl)-oxazolidin-4-one], for which the IC50 stood at 586 nM on human orexin-2 receptor and 9600 nM on human orexin-1 receptor.

`CCOc1ccccc1C1OCC(=O)N1Cc1ccccc1F` (stereo not drawn) [Example 20, 2-(2-Ethoxy-phenyl)-3-(2-fluoro-benzyl)-oxazolidin-4-one]: the figures for the IC50 on human orexin-2 receptor and at human orexin-1 receptor were 262 nM and over 10000 nM, respectively.

In the case of `CCOc1ccccc1C1OCC(=O)N1Cc1ccc(Cl)cc1` (stereo not drawn) [Example 21, 3-(4-Chloro-benzyl)-2-(2-ethoxy-phenyl)-oxazolidin-4-one], the IC50 at human orexin-2 receptor was 696 nM; on human orexin-1 receptor, over 10000 nM.

Take `CCOc1ccccc1C1OCC(=O)N1Cc1ccc(C(F)(F)F)cc1F` (stereo not drawn) [Example 22, 2-(2-Ethoxy-phenyl)-3-(2-fluoro-4-trifluoromethyl-benzyl)-oxazolidin-4-one]: the IC50 on human orexin-2 receptor is 839 nM; on human orexin-1 receptor, over 10000 nM.

With `CCOc1ccccc1C1OCC(=O)N1Cc1c(Cl)cccc1Cl` (stereo not drawn) [Example 23, 3-(2,6-Dichloro-benzyl)-2-(2-ethoxy-phenyl)-oxazolidin-4-one], the IC50 on human orexin-2 receptor turned out to be 787 nM; at human orexin-1 receptor, 1840 nM.

As for `CCOc1ccccc1C1OCC(=O)N1Cc1cccc(C)c1` (stereo not drawn) [Example 24, 2-(2-Ethoxy-phenyl)-3-(3-methyl-benzyl)-oxazolidin-4-one], the IC50 is 363 nM at human orexin-2 receptor and over 10000 nM on human orexin-1 receptor.

On to `CCOc1ccccc1C1OCC(=O)N1Cc1ccc(F)cc1` (stereo not drawn) [Example 25, 2-(2-Ethoxy-phenyl)-3-(4-fluoro-benzyl)-oxazolidin-4-one], for which the IC50 was 199 nM at human orexin-2 receptor and over 10000 nM at human orexin-1 receptor.

Take `CCOc1ccccc1C1OCC(=O)N1Cc1ccc(F)c(F)c1` (stereo not drawn) [Example 26, 3-(3,4-Difluoro-benzyl)-2-(2-ethoxy-phenyl)-oxazolidin-4-one]: the IC50 is 652 nM on human orexin-2 receptor and over 10000 nM at human orexin-1 receptor.
